Our source for the IC50, DC50 and Kd values is US20250074891A1 (Anaxis Pharma Pty Ltd., priority 2021, published 2025).

For one test, the system named is U937 cells. Nature of the test: Counter screen: cell viability without TSQ cocktail (off-target effect). Also on record: species or system human. The following applies: Homo sapiens, U-937, Table 38, read-out: Off-target effect (IC50 cell-based assay). Here is the method: Counter screen: In parallel, all compounds were tested for their ability to affect cell viability. The same U937 cells were treated with compound in DMSO without the TSQ cocktail. This counter screen enabled evaluation of off-target effects. In this case, cell viability was measured by CelltiterGlo.
Background: A counterscreen serves to expose hits that act by an unwanted route or on another target.

For another test, the target named is endogenous MLKL in U937 (Homo sapiens (Human), UniProt Q8NB16). Nature of the test: Degradation assay: degradation of endogenous MLKL in human cells (Western blot). The following applies: 24 h incubation, read-out: Degradation of endogenous MLKL in U937 (DC50 cell-based assay in μM). Background: Immunoblotting shows a protein as a band on a membrane.
endogenous MLKL in U937, sequence (Q8NB16 whole entry): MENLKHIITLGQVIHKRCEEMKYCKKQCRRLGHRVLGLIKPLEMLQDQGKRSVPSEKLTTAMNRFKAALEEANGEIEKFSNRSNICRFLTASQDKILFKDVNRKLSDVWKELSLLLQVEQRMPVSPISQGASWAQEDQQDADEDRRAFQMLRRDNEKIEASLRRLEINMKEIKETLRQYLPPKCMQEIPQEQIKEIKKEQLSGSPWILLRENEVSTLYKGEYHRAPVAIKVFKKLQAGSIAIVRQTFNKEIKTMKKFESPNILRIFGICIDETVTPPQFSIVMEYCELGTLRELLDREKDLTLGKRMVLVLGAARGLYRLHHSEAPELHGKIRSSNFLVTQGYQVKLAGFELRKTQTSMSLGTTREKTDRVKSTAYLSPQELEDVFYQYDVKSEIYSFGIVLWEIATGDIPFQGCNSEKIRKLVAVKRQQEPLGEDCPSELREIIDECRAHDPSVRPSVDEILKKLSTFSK
The target of a further test is MLKL (full length) (Homo sapiens (Human), UniProt Q8NB16). Nature of the test: KINOMEscan binding assay, MLKL (full length). The settings on record: Table 36. The protocol:
Kinase assays. For most assays, kinase-tagged T7 phage strains were grown in parallel in 24-well blocks in an E. coli host derived from the BL21 strain. E. coli were grown to log-phase and infected with T7 phage from a frozen stock (multiplicity of infection=0.4) and incubated with shaking at 32° C. until lysis (90-150 minutes).
The Hill Slope was set to −1.

The test system of test [1] is U937 human histiocytic leukemia cell line. Nature of the test: Cellular assay: inhibition of TSQ induced necroptosis (CellTitre-Glo). The following applies: Homo sapiens, U-937; U937 cells, TSQ cocktail, 48 hours, Table 38; read-out: Inhibition of TSQ-induced necroptosis (IC50 cell-based assay). The procedure, abridged: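 U937 cells (20,000/well) pre-dosed with compound (10-point, 1:3 from 36 μM, 0.3% DMSO), then TSQ (hTNF-Fc 100 ng/ml, Smac mimetic 500 nM, Q-VD-OPh 10 μM) for 48 h at 37 °C. Viability by CellTiter-Glo luminescence, normalised to DMSO (100%) and DMSO+TSQ (0%); IC50 from 4-parameter fit.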

The next test has as its target MLKL (Homo sapiens (Human), UniProt Q8NB16). Nature of the test: Binding to MLKL (KD), in vitro. The settings on record: in vitro assays.

MLKL (full length), sequence (Q8NB16 whole entry): as above
MLKL, sequence (Q8NB16 whole entry): as above

Broadly, the IC50 is the concentration needed to halve the response being measured. A word on the DC50: it is the concentration giving 50% degradation. As a reminder, the Kd is the free concentration of one partner at which half of the binding sites on the other are occupied at equilibrium, for simple one-to-one binding. Regarding `Cc1ncsc1-c1ccc(CNC(=O)[C@@H]2C[C@@H](O)CN2C(=O)[C@@H](NC(=O)CCCCCOc2ccc(Nc3[nH]nc(-c4ccc(NS(=O)(=O)C(F)F)c(O[C@@H](C)c5ccc(F)cc5)c4)c3C(N)=O)nc2)C(C)(C)C)cc1` [Compound 1048, 3-[4-(difluoromethanesulfonamido)-3-[(1S)-1-(4-fluorophenyl)ethoxy]phenyl]-5-({5-[(5-{[(2S)-1-[(2S,4R)-4-hydroxy-2-({[4-(4-methyl-1,3-thiazol-5-yl)phenyl]methyl}carbamoyl)pyrrolidin-1-yl]-3,3-dimethyl-1-oxobutan-2-yl]carbamoyl}pentyl)oxy]pyridin-2-yl}amino)-1H-pyrazole-4-carboxamide], the IC50 with U937 cells is greater than 10000 nM; in test [1], less than 1000 nM. The DC50 on endogenous MLKL in U937 was less than 1 µM. The compound further gave a Kd at MLKL (full length) of less than 10 nM.

For the compound `Cc1ncsc1-c1ccc(CNC(=O)[C@@H]2C[C@@H](O)CN2C(=O)[C@@H](NC(=O)CN2CCC(Oc3ccc(Nc4[nH]nc(-c5ccc(NS(=O)(=O)C(F)F)c(O[C@@H](C)c6ccc(F)cc6)c5)c4C(N)=O)nc3)CC2)C(C)(C)C)cc1` [Compound 1050, 3-[4-(difluoromethanesulfonamido)-3-[(1S)-1-(4-fluorophenyl)ethoxy]phenyl]-5-[(5-{[1-({[(2S)-1-[(2S,4R)-4-hydroxy-2-({[4-(4-methyl-1,3-thiazol-5-yl)phenyl]methyl}carbamoyl)pyrrolidin-1-yl]-3,3-dimethyl-1-oxobutan-2-yl]carbamoyl}methyl)piperidin-4-yl]oxy}pyridin-2-yl)amino]-1H-pyrazole-4-carboxamide], the IC50 is greater than 10000 nM in the test on U937 cells and 1000 to 10000 nM in test [1]. Moreover, the DC50 at endogenous MLKL in U937 is less than 1 µM. Further, the Kd at MLKL (full length) lay in the range of 10 to 1000 nM.

With `Cc1ncsc1-c1ccc(CNC(=O)[C@@H]2C[C@@H](O)CN2C(=O)[C@@H](NC(=O)CCCCOC(=O)c2ccc(Nc3[nH]nc(-c4ccc(NS(=O)(=O)C(F)F)c(O[C@@H](C)c5ccc(F)cc5)c4)c3C(N)=O)nc2)C(C)(C)C)cc1` [Compound 1051, 4-{[(2S)-1-[(2S,4R)-4-hydroxy-2-({[4-(4-methyl-1,3-thiazol-5-yl)phenyl]methyl}carbamoyl)pyrrolidin-1-yl]-3,3-dimethyl-1-oxobutan-2-yl]carbamoyl}butyl 6-({4-carbamoyl-3-[4-(difluoromethanesulfonamido)-3-[(1S)-1-(4-fluorophenyl)ethoxy]phenyl]-1H-pyrazol-5-yl}amino)pyridine-3-carboxylate], the IC50 in the test with U937 cells was greater than 10000 nM; in test [1], 1000 to 10000 nM. The DC50 at endogenous MLKL in U937 lay in the range of 1 to 10 µM. On MLKL (full length), this compound registered a Kd of 10 to 1000 nM.

Regarding `Cc1ncsc1-c1ccc(CNC(=O)[C@@H]2C[C@@H](O)CN2C(=O)[C@@H](NC(=O)CCCCOC(=O)c2ccc(Nc3[nH]nc(-c4ccc(NS(=O)(=O)C(F)F)c(F)c4)c3C(N)=O)nc2)C(C)(C)C)cc1` [Compound 1053], the IC50 in the test on U937 cells was greater than 10000 nM; in test [1] it was 1000 to 10000 nM. For the same compound, at endogenous MLKL in U937, the DC50 is 1 to 10 µM. At MLKL (full length), this compound came in with a Kd of less than 10 nM.

As for `CCS(=O)(=O)Nc1ccc(-c2n[nH]c(Nc3ccc(C(=O)OCCCCCC(=O)N[C@H](C(=O)N4C[C@H](O)C[C@H]4C(=O)NCc4ccc(-c5scnc5C)cc4)C(C)(C)C)cn3)c2C(N)=O)cc1O[C@@H](C)c1ccc(F)cc1` [Compound 1057, 5-{[(2S)-1-[(2S,4R)-4-hydroxy-2-({[4-(4-methyl-1,3-thiazol-5-yl)phenyl]methyl}carbamoyl)pyrrolidin-1-yl]-3,3-dimethyl-1-oxobutan-2-yl]carbamoyl}pentyl 6-[(4-carbamoyl-3-{4-ethanesulfonamido-3-[(1S)-1-(4-fluorophenyl)ethoxy]phenyl}-1H-pyrazol-5-yl)amino]pyridine-3-carboxylate], the IC50 with U937 cells is greater than 10000 nM; in test [1], less than 1000 nM. Further, the DC50 at endogenous MLKL in U937 is less than 1 µM. At MLKL (full length), this compound gave a Kd of less than 10 nM.

`CCS(=O)(=O)Nc1ccc(-c2n[nH]c(Nc3ccc(C(=O)OCCCCCCC(=O)N[C@H](C(=O)N4C[C@H](O)C[C@H]4C(=O)NCc4ccc(-c5scnc5C)cc4)C(C)(C)C)cn3)c2C(N)=O)cc1O[C@@H](C)c1ccc(F)cc1` [Compound 1058, 6-{[(2S)-1-[(2S,4R)-4-hydroxy-2-({[4-(4-methyl-1,3-thiazol-5-yl)phenyl]methyl}carbamoyl)pyrrolidin-1-yl]-3,3-dimethyl-1-oxobutan-2-yl]carbamoyl}hexyl 6-[(4-carbamoyl-3-{4-ethanesulfonamido-3-[(1S)-1-(4-fluorophenyl)ethoxy]phenyl}-1H-pyrazol-5-yl)amino]pyridine-3-carboxylate]: the IC50 was greater than 10000 nM with U937 cells and less than 1000 nM in test [1]. The DC50 at endogenous MLKL in U937 is less than 1 µM. For the same compound, at MLKL (full length), the Kd lay within 10 to 1000 nM.

At MLKL, `CCS(=O)(=O)Nc1ccc(-c2n[nH]c(Nc3ccc(C(=O)OCCCCC(=O)N[C@H](C(=O)N4C[C@H](O)C[C@H]4C(=O)NCc4ccc(-c5scnc5C)cc4)C(C)(C)C)cn3)c2C#N)cc1O[C@@H](C)c1ccc(F)cc1` [Compound 1061, 4-{[(2S)-1-[(2S,4R)-4-hydroxy-2-({[4-(4-methyl-1,3-thiazol-5-yl)phenyl]methyl}carbamoyl)pyrrolidin-1-yl]-3,3-dimethyl-1-oxobutan-2-yl]carbamoyl}butyl 6-[(4-cyano-3-{4-ethanesulfonamido-3-[(1S)-1-(4-fluorophenyl)ethoxy]phenyl}-1H-pyrazol-5-yl)amino]pyridine-3-carboxylate] came in with a Kd of roughly 2000 nM.
